Values quoted from earlier work in patent US4883862A, “Mercaptosuccinyl glycyl-glycyl-glycine a complex thereof with Tc-99m, and methods of making the same” (Albert Einstein College of Medicine - of Yeshiva University, priority 1988, dated 1989).

[1] = 3 hrs after intravenous administration of 500 uCi

radiation dose to a normal kidney [1]: 47 mrad
radiation dose to the bladder wall [1]: 1.7 rad
renal absorbed dose (patients with impaired renal function): ≥ 3 rad
SMILES: O=C(O)CNC(=O)c1ccccc1[131I] [I-131 OIH, o-[^131 I]iodohippurate]
